Data set [1] deals with MDA-MB-468 human breast cancer cells. Put plainly: MTT cell proliferation assay, MDA-MB-468. It counts as cell-based. Particulars: MDA-MB-468 cells, SEM < 10%, read-out: GI50s MDA-MB-468. An excerpt:
(§1) MCF-7, MDA-MB-231, MDA-MB-468 and SKBR-3 human breast cancer cells and LNCaP, PC-3, and CWR22Rv1 human prostate carcinoma cells (American Type Culture Collection, Manassas, Va., USA) were maintained in RPMI 1640 media (Gibco-Life Technologies, Grand Island, N.Y., USA) supplemented with 10% fetal bovine serum and 1% penicillin/streptomycin. Western blotting was done as mentioned previously,^8, 13b using the following antibodies: AR, Bad, Bax, Bcl-2, eIF4E, Mnk1, Mnk-2, N-cadherin, PARP, peIF4E^ser209 purchased from Cell Signaling Technology, Danvers, Mass., USA. Anti-Mnk2 was purchased from Sigma-Aldrich and normal rabbit IgG, cyclin D1 was from Santa Cruz Biotechnology, CA, USA.
(§2) Cells were plated (2500 cells/well) in 96 well plates and treated with or without specified compounds as described previously.^8a, 12b
(§3) The clinically relevant retinoids, ATRA and 4-HPR and the Mnk inhibitor, cercosporamide were used as comparators in the assays.
A general note: Tetrazolium assays rely on reduction of a dye to a coloured formazan, in cell work by metabolically active cells.

Data set [2] deals with MDA-MB-231 human breast cancer cells. Put plainly: MTT cell proliferation assay, MDA-MB-231. Particulars: MDA-MB-231 cells, SEM < 10%, read-out: GI50s MDA-MB-231. It counts as cell-based.
Text: as §1, §2, §3

Data set [3] concerns SKBR-3 human breast cancer cells. In words: MTT cell proliferation assay, SKBR-3. It counts as cell-based. Particulars: SK-BR-3, SKBR-3 cells, SEM < 10%, read-out: GI50s SKBR-3.
Text: as §1, §2, §3

The test system of data set [4] is MCF-7 human breast cancer cells. In words: MTT cell proliferation assay, MCF-7. Particulars: Homo sapiens, MCF7; MCF-7 cells, MTT, SEM < 10%; read-out: GI50s MCF-7. It counts as cell-based.
Text: as §1, §2, §3

As a reminder, the melting point is the temperature of the solid-liquid transition. With `CC1=C(/C=C/C(C)=C/C=C/C(C)=C\C(=O)NCc2ccc(F)cc2)C(C)(C)CCC1n1ccnc1` (stereo not shown) [Compound 23, (2Z,4E,6E,8E)-9-(3-(1H-imidazol-1-yl)-2,6,6-trimethylcyclohex-1-en-1-yl)-N-(4-fluorobenzyl)-3,7-dimethylnona-2,4,6,8-tetraenamide], the melting point fell in the range of 93 to 95 °C. In data set [1], the IC50 is 2.45 µM. In data set [2], the IC50 is 1.41 µM. For the same compound, the IC50 in data set [3] was 5.5 µM. Moreover, the IC50 in data set [4] was found to be 1.93 µM.
On to `CC1=C(/C=C/C(C)=C/C=C/C(C)=C\C(=O)NCc2cccc(F)c2)C(C)(C)CCC1n1ccnc1` (stereo not shown) [Compound 24, (2Z,4E,6E,8E)-9-(3-(1H-imidazol-1-yl)-2,6,6-trimethylcyclohex-1-en-1-yl)-N-(3-fluorobenzyl)-3,7-dimethylnona-2,4,6,8-tetraenamide], for which the IC50 in data set [1] turned out to be 2.45 µM; in data set [2], 1.65 µM; in data set [3], 5.5 µM; in data set [4], 1.81 µM.
The compound `CC1=C(/C=C/C(C)=C/C=C/C(C)=C\C(=O)NCCc2ccc(O)cc2)C(C)(C)CCC1n1ccnc1` (stereo not shown) [Compound 25, (2Z,4E,6E,8E)-9-(3-(1H-imidazol-1-yl)-2,6,6-trimethylcyclohex-1-en-1-yl)-N-(4-hydroxyphenethyl)-3,7-dimethylnona-2,4,6,8-tetraenamide] showed a melting point of 126 to 128 °C. Also, in data set [1], the IC50 was determined as 13.5 µM. For the same compound, the IC50 in data set [2] amounted to 2.88 µM. In addition, the IC50 in data set [3] was 1.41 µM. For the same compound, in data set [4], the IC50 was found to be 1.9 µM.
With `CC1=C(/C=C/C(C)=C/C=C/C(C)=C\C(=O)Nc2ccccc2)C(C)(C)CC=C1c1cccnc1` [Compound 35, (2Z,4E,6E,8E)-3,7-dimethyl-N-phenyl-9-(2,6,6-trimethyl-3-(pyridin-3-yl)cyclohexa-1,3-dien-1-yl)nona-2,4,6,8-tetraenamide], the IC50 in data set [1] turned out to be 39.8 µM; in data set [2] it was 25.1 µM; in data set [3], 47.4 µM; in data set [4], 8.32 µM.
Consider `CC1=C(/C=C/C(C)=C/C=C/C(C)=C\C(=O)NCc2ccc(O)cc2)C(C)(C)CC=C1c1cccnc1` [Compound 36, (2Z,4E,6E,8E)-N-(4-hydroxybenzyl)-3,7-dimethyl-9-(2,6,6-trimethyl-3-(pyridin-3-yl)cyclohexa-1,3-dien-1-yl)nona-2,4,6,8-tetraenamide], for which the melting point lay within 124 to 126 °C.
Take `CC1=C(/C=C/C(C)=C/C=C/C(C)=C\C(=O)NCCc2ccc(O)cc2)C(C)(C)CC=C1c1cccnc1` [Compound 37, (2Z,4E,6E,8E)-N-(4-hydroxyphenethyl)-3,7-dimethyl-9-(2,6,6-trimethyl-3-(pyridin-3-yl)cyclohexa-1,3-dien-1-yl)nona-2,4,6,8-tetraenamide]: the melting point is 110 to 112 °C. Besides, the IC50 in data set [1] is 50.1 µM. In addition, the IC50 in data set [2] came out at 26.9 µM. Further, the IC50 in data set [3] came out at 42.2 µM. Also, the IC50 in data set [4] is 8.75 µM.
For `CC1=C(/C=C/C(C)=C/C=C/C(C)=C\C(=O)Nc2ccccc2)C(C)(C)CC=C1c1cncnc1` [Compound 38, (2Z,4E,6E,8E)-3,7-dimethyl-N-phenyl-9-(2,6,6-trimethyl-3-(pyrimidin-5-yl)cyclohexa-1,3-dien-1-yl)nona-2,4,6,8-tetraenamide], in that order: 105 to 107 °C, 22.9 µM, 26.9 µM, 31 µM and 7.01 µM.
For `CC1=C(/C=C/C(C)=C/C=C/C(C)=C\C(=O)NCc2ccc(O)cc2)C(C)(C)CC=C1c1cncnc1` [Compound 39, (2Z,4E,6E,8E)-N-(4-hydroxybenzyl)-3,7-dimethyl-9-(2,6,6-trimethyl-3-(pyrimidin-5-yl)cyclohexa-1,3-dien-1-yl)nona-2,4,6,8-tetraenamide], in that order: 145 to 147 °C, 19.1 µM, 11.5 µM, 11.5 µM and 4.96 µM.
